The subject of the experiment is human macrophages. The experiment in a line: Human macrophage cell viability and survival following CSF1R inhibition with PLX3397, CellTiter-Glo. The format is cell-based. Conditions: PLX3397 30 nM alone, complete RPMI media. As for the experimental part: To evaluate the ability of an anti-TREM2 antibody to sustain survival of human macrophages after CSF1R inhibition, the ability of AL2p-58 huIgG1 PSEG to enhance cell-viability and survival in the presence of CSF1R inhibitor PLX3397 was tested (DeNardo et al., Cancer Discov (2011) 1(1):54-67. 22039576t; Peng, et al., J. of Exp Canc Res (2019) 38(1):372. PMID: 31438996). Similar to CSF1 withdrawal experiments, human derived macrophages were plated onto 96-well plates on Day 6 and treated with IgG1, PLX3397 (30 nM), AL2p-58 huIgG1 PSEG (10 μg/mL) or a combination of PLX3397 and AL2p-58 huIgG1 PSEG on Day 7, all in complete RPMI media. Cell viability was quantified using the CellTiter-Glo luminescent viability assay (Promega) on each subsequent day.

In the case of `FC(F)(F)c1ccc(CNc2ccc(Cc3c[nH]c4ncc(Cl)cc34)cn2)cn1` [PLX3397, reference compound], the “cell viability of human macrophages treated with CSF1R inhibitor alone” value is recorded as “reduced cell viability”.

The values above are taken from US20230024528A1, “METHODS OF USE OF ANTI-TREM2 ANTIBODIES” (Alector LLC, priority 2019, published 2023).
